Experimental data: ChEMBL document CHEMBL3853268, “Thiosemicarbazone modification of 3-acetyl coumarin inhibits Aβ peptide aggregation and protect against Aβ-induced cytotoxicity” (Eur J Med Chem, 2016)
Active and inactive are the calls of the source. The rule behind the calls is not given here.

How the values were obtained:
[1] = biological target: Amyloid-beta precursor protein (Homo sapiens) (UniProt P05067); assay: Inhibition of HFIP-induced amyloid beta (1 to 42 residues) (unknown origin) aggregation at 1:1 protein to compound ratio preincubated for 15 mins followed by HFIP addition measured after 40 mins by silver staining-based native PAGE assay
[2] = biological target: Amyloid-beta precursor protein (Homo sapiens) (UniProt P05067); assay: Inhibition of HFIP-induced amyloid beta (1 to 42 residues) (unknown origin) aggregation at 1:0.75 protein to compound ratio preincubated for 15 mins followed by HFIP addition measured after 40 mins by ThT fluorescence assay
[3] = Neuroprotective activity against amyloid beta (1 to 42 residues)-induced toxicity in human SH-SY5Y cells assessed as cell viability at 5 to 20 uM after 3 days by MTT assay (reference value: 28%); type: functional
[4] = Cytotoxicity against human SH-SY5Y cells assessed as decrease in cell viability after 24 hrs by MTT assay; type: toxicity, cell-based
[5] = biological target: Amyloid-beta precursor protein (Homo sapiens) (UniProt P05067); assay: Inhibition of HFIP-induced amyloid beta (1 to 42 residues) (unknown origin) aggregation at 1:1 protein to compound ratio preincubated for 15 mins followed by HFIP addition measured after 40 mins by turbidity assay relative to control
[6] = biological target: Amyloid-beta precursor protein (Homo sapiens) (UniProt P05067); assay: Inhibition of HFIP-induced amyloid beta (1 to 42 residues) (unknown origin) aggregation at 1:0.25 protein to compound ratio preincubated for 15 mins followed by HFIP addition measured after 40 mins by ThT fluorescence assay relative to control
[7] = biological target: Amyloid-beta precursor protein (Homo sapiens) (UniProt P05067); assay: Inhibition of HFIP-induced amyloid beta (1 to 42 residues) (unknown origin) aggregation at 1:1 protein to compound ratio preincubated for 15 mins followed by HFIP addition measured after 40 mins by ANS extrinsic fluorescence assay relative to control
[8] = biological target: Amyloid-beta precursor protein (Homo sapiens) (UniProt P05067); assay: Inhibition of HFIP-induced amyloid beta (1 to 42 residues) (unknown origin) aggregation at 1:1 protein to compound ratio preincubated for 15 mins followed by HFIP addition measured after 40 mins by ThT fluorescence assay relative to control
[9] = biological target: Amyloid-beta precursor protein (Homo sapiens) (UniProt P05067); assay: Inhibition of HFIP-induced amyloid beta (1 to 42 residues) (unknown origin) aggregation assessed as decrease in levels of higher aggregates at 1:1 protein to compound ratio preincubated for 15 mins followed by HFIP addition measured after 40 mins by silver staining-based native PAGE assay
[10] = biological target: Amyloid-beta precursor protein (Homo sapiens) (UniProt P05067); assay: Inhibition of HFIP-induced amyloid beta (1 to 42 residues) (unknown origin) aggregation at 1:0.5 protein to compound ratio preincubated for 15 mins followed by HFIP addition measured after 40 mins by ThT fluorescence assay

Chain of Amyloid-beta precursor protein (Homo sapiens) (P05067 whole entry, the tested form may be a part): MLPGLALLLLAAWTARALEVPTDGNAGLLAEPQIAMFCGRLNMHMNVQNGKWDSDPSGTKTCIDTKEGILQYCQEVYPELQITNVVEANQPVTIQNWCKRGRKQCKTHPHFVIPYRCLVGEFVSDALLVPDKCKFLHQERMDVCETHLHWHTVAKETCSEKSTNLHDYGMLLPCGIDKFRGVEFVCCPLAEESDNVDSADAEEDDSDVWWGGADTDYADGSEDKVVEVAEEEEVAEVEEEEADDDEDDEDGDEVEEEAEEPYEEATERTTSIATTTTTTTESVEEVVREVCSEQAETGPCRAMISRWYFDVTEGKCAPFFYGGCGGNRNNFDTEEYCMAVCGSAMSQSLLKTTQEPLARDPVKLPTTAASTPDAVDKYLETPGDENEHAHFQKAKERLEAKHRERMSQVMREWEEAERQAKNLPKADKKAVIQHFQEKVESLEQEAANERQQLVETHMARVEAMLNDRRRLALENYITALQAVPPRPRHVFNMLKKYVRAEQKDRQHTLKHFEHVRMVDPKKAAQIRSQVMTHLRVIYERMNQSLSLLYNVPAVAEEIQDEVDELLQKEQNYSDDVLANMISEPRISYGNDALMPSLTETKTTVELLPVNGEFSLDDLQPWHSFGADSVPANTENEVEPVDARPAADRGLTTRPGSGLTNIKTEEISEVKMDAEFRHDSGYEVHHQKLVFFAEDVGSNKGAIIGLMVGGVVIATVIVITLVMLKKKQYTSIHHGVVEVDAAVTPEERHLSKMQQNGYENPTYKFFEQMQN

| Compound | inhibition [1] | inhibition [2] | Activity [3] [%] | IC50 ([4]; sh-sy5y) [µM] | inhibition [5] [%] | inhibition [6] [%] | inhibition [7] [%] | inhibition [8] [%] | inhibition [9] | inhibition [10] | IC50 at 24 h ([4]; human, SH-SY5Y cells) [µM] |
| --- | --- | --- | --- | --- | --- | --- | --- | --- | --- | --- | --- |
| Oc1c(I)cc(Cl)c2cccnc12 | Active | – | – | – | – | – | – | – | – | – | – |
| C/C(=N\NC(N)=S)c1cc2ccccc2oc1=O | Active | Active | 95 | ≤ 185 | 78 | 53 | 86 | 80 | Active | Active | – |
| CC(=O)c1cc2ccccc2oc1=O [3-ACETYLCOUMARIN] | Active | Active | 77 | – | 59 | 40 | 40 | 50 | Active | Active | 75 |
